Like-named read-outs stand apart in the source and are kept apart here.
How the values were obtained:
[1] = Fluorescence change between protonated and deprotonated form of the fluorophore; assay type: physicochemical; details: in Tetrahydrofuran, pH set with 1 M HCl or 1,0 M NaOH, fluorophore 10⁻⁷ mol/l
From the text: Die Ergebnisse sind in Tabelle 2 angegeben.

[2] = pKa determination from fluorescence intensity as a function of pH; details: for pKa: 30 vol% methanol / 70 vol% phosphate buffer, pH 6
From the text: (§2) Die Fluorophore werden in einem Gemisch aus 30 Vol.-% Methanol und 70 Vol.-% Phosphatpuffer gelöst und verschiedene pH-Werte zwischen 6 und 13 eingestellt. Die Messlösungen werden in eine Küvette gefüllt und die Fluoreszenzintensität mit einem Spektrophotometer gemessen. Die Fluoreszenzintensität wird als Funktion des pH-Wertes aufgetragen und aus dem Wendepunkt der Kurve der pKa-Wert ermittelt. […] Die Konzentration der Fluorophore beträgt jeweils 10⁻⁷ mol/l.

[3] = Optical potassium determination with sensor membrane (decrease of fluorescence intensity); details: aqueous KCl, 1 ml/min, PVC membrane with Valinomycin
Description: a) Als Trägermaterial wird vorbehandeltes Glas verwendet. Runde Glasscheiben (Durchmesser 18 mm, Dicke 0,17 mm) werden eine Stunde in eine Lösung von 10 Vol-% Dimethyl-dodecylchlorsilan in Isopropanol getaucht. Danach wäscht man die Glasscheiben nacheinander mit je 200 ml Isopropanol, Ethanol und Methanol und trocknet 1 h bei 110 °C. Die hydrophobisierte Oberfläche weist eine verbesserte Haftung der Membranschicht auf. b) Herstellung der Beschichtungslösung. Die folgenden Bestandteile werden zusammen mit 1,5 ml Tetrahydrofuran in eine 2 ml Flasche gegeben und bis zur Lösung der Komponenten geschüttelt: • 1. 80 mg Polyvinylchlorid (Fluka, 81392) • 2. 160 mg Bis-(2-ethylhexyl)sebacat (Weichmacher) • 3. 5 mg Valinomycin • 4. 1,5 mg Kalium-tetrakis(4-fluorphenyl)borat • 5. 2 mg Fluorophor
c) Herstellung von beschichteten Glasträgern. Die Glasträger werden in der Kammer eines Schleuderbeschichtungsapparats (Optocoat OS 35var, Willer Company, CH-8484 Weisslingen) befestigt. Die Kammer wird mit 10 ml Tetrahydrofuran gespült und 2 min bei 3800 Umdrehungen/Minute rotiert. Danach werden 50 µl der jeweiligen Beschichtungslösung auf den Glasträger pipettiert und der Glasträger noch 10 sec rotiert. Man entfernt den mit einer Membran beschichteten Glasträger und trocknet ihn 10 min an der Luft. d) Spektrale Eigenschaften der Membranen. Die beschichteten Glasträger werden in einer optischen Zelle befestigt, in der die Membran mit der Messflüssigkeit in Berührung steht. Die Membran kann in der optischen Zelle optisch angeregt und die Fluoreszenzstrahlung gemessen werden. Die optische Zelle wird in ein Spektrofluorometer (Pekin-Elmer LS-50) gebracht und das Absorptions- und Emmissionsspektrum gemessen. Ferner wird die relative Fluoreszenzquantenausbeute gemäss der von Calvert und Pitts in Photochemistry, Verlag: John Wiley and Sons Inc., Seiten 799 bis 805 (1966) beschriebenen Methode mit Fluorescein als Standard bestimmt. Die Ergebnisse sind in Tabelle 1 angegeben. Tabelle 1:
(§1) Es wird die gleiche Versuchsanordnung wie in Beispiel B1d verwendet und die Absorptions- sowie Emmissionswellenlängen auf die entsprechenden Maxima der in der Membran eingesetzten Fluorophore eingestellt. Die Membran wird mit einer wässrigen KCl-Lösung definierter Konzentration in Kontakt gebracht, indem man die Lösung mit einer Geschwindigkeit von 1 ml/min durch die Zelle pumpt und die Änderung der Fluoreszenzintensität bestimmt. Vor der Messung und nach jeder Messung wird mit Kaliumionen-freien Pufferlösungen gespült und die Fluoreszenzintensität bestimmt, um die Basislinie festzulegen. Die Erniedrigung der Fluoreszenzintensität in Prozent bei der jeweiligen Kaliumkonzentration für den Fluorophor gemäss Beispiel A5 (Membran B1) sind in der Tabelle 3 angegeben.

[4] = 30% methanol phosphate buffer, pH 6
From the text: as §2

[5] = Optical sodium determination with sensor membrane (decrease of fluorescence intensity); details: buffer pH 5, Polyurethan (Tecoflex) membrane with Natrium Ionophor V
Description: as §1, with “angegeben. Tabelle 3:” for “angegeben.”
Es wird wie in Beispiel C1 verfahren und die Natriumionenkonzentration mit einer Membran aus 2 mg Fluorophor gemäss Beispiel A5, 30 mg Natriumionophor (4-Octadecanoyloxymethyl-N,N,N,N-tetracyxlohexyl- 1 ,2-phenylendioxy-diacetamid, Fluka Natrium Ionophor V, Katalog Nr. 71738), 2 mg Kalium-tetrakis(4-chlorphenyl)borat, 75 mg Polyurethan (Tecoflex®), 160 mg Bis-2-ethylhexyl-sebacat als Weichmacher und 1 ml Tetrahydrofuran bestimmt. Der Sensor wird einer Pufferlösung bei pH 5 (0,1 Mol Tris-hydroxymethyl-aminomit-methan und 1M HCl) unterschiedlichen Natriumkonzentrationen ausgesetzt. Die Ergebnisse sind in Tabelle 6 angegeben.

[6] = Optical calcium determination with sensor membrane (decrease of fluorescence intensity); details: buffer pH 5, Polyurethan (Tecoflex) membrane with Kalzium Ionophor I
Description: as §1, with “angegeben. Tabelle 3:” for “angegeben.”
Es wird wie in Beispiel C1 verfahren und die Kalziumionenkonzentration mit einer Membran aus 2 mg Fluorophor gemäss Beispiel A5, 30 mg Kalziumionophor ((-)-(R,R)-N,N-[Bis(11-ethoxycarbonyl)undecyl]-N,N-4,5-tetramethyl-3,6-dioxaoctandia mid, Fluka Kalzium Ionophor I, Katalog Nr. 21192), 6 mg Kalium-tetrakis(4-chlorphenyl)borat, 75 mg Polyurethan (Tecoflex®), 160 mg Bis-2-ethylhexyl-sebacat als Weichmacher und 1 ml Tetrahydrofuran bestimmt. Der Sensor wird einer Pufferlösung bei pH 5 (0,02M NaOH und Essigsäure) unterschiedlichen Kalziumkonzentrationen ausgesetzt. Die Ergebnisse sind in Tabelle 7 angegeben.

CCCCCCC(=O)Nc1ccc2cc3ccc(NC(=O)CCCCCC)cc3nc2c1
Änderung Fluoreszenzintensität [1]: 24 Prozent | pKa [2]: 10

CCCCCCCCN=c1ccc2c(-c3ccccc3C(=O)O)c3ccc(NCCCCCCCC)cc3oc-2c1 [Beispiel A6]
Änderung Fluoreszenzintensität [1]: 20 Prozent | % Erniedrigung Fluoreszenzintensität ([3]; Kalium-Konzentration 0,1 mM): 36% | % Erniedrigung Fluoreszenzintensität ([3]; Kalium-Konzentration 0,5 mM): 41% | % Erniedrigung Fluoreszenzintensität ([3]; Kalium-Konzentration 1,0 mM): 43% | % Erniedrigung Fluoreszenzintensität ([3]; Kalium-Konzentration 5,0 mM): 48% | % Erniedrigung Fluoreszenzintensität ([3]; Kalium-Konzentration 10,0 mM): 52% | pKa-Wert [4]: 12,0

CCCCCCCCCCCCCCCCCCCCN=c1ccc2c(-c3ccccc3C(=O)O)c3ccc(N(CC)CC)cc3oc-2c1 [Beispiel A5]
Änderung Fluoreszenzintensität [1]: 33 Prozent | % Erniedrigung Fluoreszenzintensität ([3]; Kalium-Konzentration 0,01 mM): 5% | % Erniedrigung Fluoreszenzintensität ([3]; Kalium-Konzentration 0,1 mM): 20% | % Erniedrigung Fluoreszenzintensität ([3]; Kalium-Konzentration 0,5 mM): 35% | % Erniedrigung Fluoreszenzintensität ([3]; Kalium-Konzentration 1,0 mM): 45% | % Erniedrigung Fluoreszenzintensität ([3]; Kalium-Konzentration 5,0 mM): 53% | % Erniedrigung Fluoreszenzintensität ([3]; Kalium-Konzentration 10,0 mM): 60% | % Erniedrigung Fluoreszenzintensität ([3]; Kalium-Konzentration 100,0 mM): 68% | % Erniedrigung Fluoreszenzintensität ([5]; Natrium-Konzentration 0 mM): 0% | % Erniedrigung Fluoreszenzintensität ([5]; Natrium-Konzentration 3 mM): 15% | % Erniedrigung Fluoreszenzintensität ([5]; Natrium-Konzentration 15 mM): 41% | % Erniedrigung Fluoreszenzintensität ([5]; Natrium-Konzentration 30 mM): 54% | % Erniedrigung Fluoreszenzintensität ([5]; Natrium-Konzentration 90 mM): 72% | % Erniedrigung Fluoreszenzintensität ([5]; Natrium-Konzentration 150 mM): 79% | % Erniedrigung Fluoreszenzintensität ([5]; Natrium-Konzentration 210 mM): 83% | % Erniedrigung Fluoreszenzintensität ([5]; Natrium-Konzentration 300 mM): 86% | % Erniedrigung Fluoreszenzintensität ([6]; Kalzium-Konzentration 0,1 mM): 26,5% | % Erniedrigung Fluoreszenzintensität ([6]; Kalzium-Konzentration 0,5 mM): 43,1% | % Erniedrigung Fluoreszenzintensität ([6]; Kalzium-Konzentration 0 mM): 0% | % Erniedrigung Fluoreszenzintensität ([6]; Kalzium-Konzentration 1,0 mM): 50,6% | % Erniedrigung Fluoreszenzintensität ([6]; Kalzium-Konzentration 3,0 mM): 61,0% | % Erniedrigung Fluoreszenzintensität ([6]; Kalzium-Konzentration 5,0 mM): 65,8% | % Erniedrigung Fluoreszenzintensität ([6]; Kalzium-Konzentration 7,0 mM): 68,1% | % Erniedrigung Fluoreszenzintensität ([6]; Kalzium-Konzentration 10,0 mM): 71,0% | pKa [2]: 10.3

CCCCCCCCNc1ccc2cc3ccc(NCCCCCCCC)cc3nc2c1 [Beispiel A1, 3,6-Bis(n-octylamino)-acridin]
Änderung Fluoreszenzintensität [1]: 44 Prozent | % Erniedrigung Fluoreszenzintensität ([3]; Kalium-Konzentration 0,1 mM): 5% | % Erniedrigung Fluoreszenzintensität ([3]; Kalium-Konzentration 0,5 mM): 15% | % Erniedrigung Fluoreszenzintensität ([3]; Kalium-Konzentration 1,0 mM): 25% | % Erniedrigung Fluoreszenzintensität ([3]; Kalium-Konzentration 5,0 mM): 39% | % Erniedrigung Fluoreszenzintensität ([3]; Kalium-Konzentration 10,0 mM): 45% | % Erniedrigung Fluoreszenzintensität ([3]; Kalium-Konzentration 100,0 mM): 75% | pKa [2]: 10

CCCCCCCCCCCCCCCCCCCCNc1ccc2cc3ccc(NCCCCCCCCCCCCCCCCCCCC)cc3nc2c1 [Beispiel A2, 3,6-Bis(n-eicosylamino)-acridin]
Änderung Fluoreszenzintensität [1]: 41 Prozent | pKa [2]: 11.1

CCCCCCCCCCCCCCCCCC(=O)N=c1ccc2c(-c3ccccc3C(=O)O)c3ccc(N(CC)CC)cc3oc-2c1 [Beispiel A7]
Änderung Fluoreszenzintensität [1]: 15 Prozent | pKa-Wert ([2]; 30 Vol.-% Methanol / 70 Vol.-% Phosphatpuffer, pH 6 to 13, fluorophore 10⁻⁷ mol/l, inflection point of curve): 10,1

From EP0623599A1 (CIBA-GEIGY AG, priority 1993, dated 1994)
